What was measured:
human cell lines = details: cited from earlier work
rat cell lines = details: cited from earlier work
[1] = once exposed to sun; cited from earlier work
[2] = Neutron reflectometry (NR) of tethered POPC / POPC-d31 lipid bilayer membranes incubated with the substance and after rinse; assay type: physicochemical; details: for Peak of avobenzone CVO from bilayer center / Surface volume density: co-refined POPC-d31 and POPC
Procedure: The interaction of avobenzone and calix[8]-PO3H2 was tested with single-membrane POPC (1-palmitoyl-2-oleoyl-sn-glycero-3-phosphocholine) tethered lipid bilayer membranes (tBLMs). Solvent-immersed tBLMs allowed for a characterization of the membrane before and after addition of avobenzone and calix[8]-PO3H2 from solution, thus mimicking the encounter of those substances by the membrane in the body. This differentiates tBLMs from conventionally used stacked lipid bilayer model systems in air. The chemical structure of the glycerophospholipid POPC consists of a zwitterionic phosphatidylcholine headgroup linked to a glycerol, which is ester-bound to two fatty acid groups—palmitic acid (C16:0) and oleic acid (C18:1). This fatty acid composition mimics that of phospholipids mainly found in the eukaryotic cell membrane, including keratinocytes. In addition to phospholipids, native eukaryotic membranes also contain glycolipids, sterols and various proteins, which are not included in the current simplified model system.
Neutron Reflectometry (NR) experiments were conducted with hydrogenated and deuterated POPC bilayers. Both data sets were simultaneously analyzed to obtain one structural model. NR measurements were performed with the CGD-Magik reflectometer at the NIST Center for Neutron Research (NCNR). Reflectivity curves were recorded for momentum transfer values 0.01≤qz≤0.25 Å^−1. For each measurement, adequate counting statistics were obtained after 5-7 h. The NCNR fluids cell allows for in situ solvent exchange; therefore, subsequent measurements were performed on the same sample area. The entire flow cell was maintained at room temperature (RT). Solvent exchange was accomplished by rinsing ˜10 ml of water through the cell (volume ˜1.3 ml) using a syringe.
A set of NR experiments was conducted with a hydrogenated POPC bilayer and another identical set of experiments with a deuterated POPC-d31 bilayer. After measurement of the as-prepared bilayer in H2O and D2O, avobenzone was added to the sample cell at a concentration of 100 μM dissolved in H2O and D2O. NR measurements were conducted while the bilayer was in contact with either solution. The sample was measured again after rinsing with H2O and D2O, respectively. Data for both bilayers were co-refined sharing conserved model parameters across data sets, in particular those associated with the volume profile of avobenzone. […] An identical set of measurements were performed with a 100 μM complex of 1:1 avobenzone:calix[8]-PO3H2 instead of pure avobenzone.
1D-component volume occupancy (CVO) profiles along the lipid bilayer normal were obtained. Bilayer fit parameters were the hydrocarbon thickness for each bilayer subsection, the bilayer completeness, and the thickness of the sub-membrane space. One roughness parameter was applied to all distributions. The thin layer of native silicon oxide was modelled by a single distribution with individual roughness and thickness parameters. Hermite splines defined by control points that were on average 15 Å apart were used to model the CVO profiles of avobenzone and calix[8]-PO3H2. The number of control points was iteratively refined during model optimization for each CVO profile. Fit parameters associated with each control point were a volume occupancy, a deviation from equidistant separation, and (for the CVO profile of the complex) a nSLD (neutron scattering length density) value between those of avobenzone and calix[8]-PO3H2. Such a variable nSLD per control point allowed us to separate individual CVO profiles for avobenzone (average nSLD ρ=1.37×10^−6 Å^−2) and calix[8]-PO3H2 (ρ=2.73×10^−6 […]). The exchange of labile protons in isotopically different buffers affects the nSLD of molecular components and was taken into account during data analysis. Optimization of model parameters was performed using the ga_refl and Refl1D software packages developed at the NCNR. […]

[3] = avobenzone alone, 100 μM incubation

| Peak of avobenzone CVO from bilayer center [2, 3] | Surface volume density [2, 3] | Peak of avobenzone CVO from bilayer center ([2]; avobenzone alone, Rinse) | Surface volume density ([2]; avobenzone alone, Rinse) | Structure (SMILES) | Toxicity towards human cell lines (human cell lines) | Toxicity towards rat cell lines (rat cell lines) | Duration of photoprotection [1] | 1 avobenzone per n lipids in outer leaflet ([2]; avobenzone alone, Rinse) | Penetration of the lipid bilayer (in words) ([2]; interacts at hydrocarbon/headgroup interface of the substrate-distal leaflet) |
| --- | --- | --- | --- | --- | --- | --- | --- | --- | --- |
| – | – | – | – | O=P(O)(O)c1cc2c(O)c(c1)Cc1cc(P(=O)(O)O)cc(c1O)Cc1cc(P(=O)(O)O)cc(c1O)Cc1cc(P(=O)(O)O)cc(c1O)Cc1cc(P(=O)(O)O)cc(c1O)Cc1cc(P(=O)(O)O)cc(c1O)Cc1cc(P(=O)(O)O)cc(c1O)Cc1cc(P(=O)(O)O)cc(c1O)C2 [calix[8]-PO3H2, p-phosphonated calix[8]arene] | non-toxic | non-toxic | – | – | – |
| 10±3 Å | 3.0±0.5 Å^3/Å^2 | 7±3 Å | 3.8±0.4 Å^3/Å^2 | COc1ccc(C(=O)CC(=O)c2ccc(C(C)(C)C)cc2)cc1 [avobenzone, 1-(4-methoxyphenyl)-3-(4-tertbutylphenyl)-propane-1,3-dione] | – | – | 30 min | ~1 avobenzone per 2.1 lipids in outer leaflet | without penetrating the bilayer to the substrate-proximal leaflet |

From patent publication US11554084B2, “Compositions incorporating avobenzone-calix[8]-PO3H2 complex” (University of Cincinnati, priority 2020, dated 2023)
